From paper PMC2928168, “Na^+-stimulated ATPase of alkaliphilic halotolerant cyanobacterium Aphanothece halophytica translocates Na^+ into proteoliposomes via Na^+ uniport mechanism” (BMC Biochemistry, 2010)

Tested on: T1, Na+-stimulated ATPase (likely F1F0-ATPase)
T1 construct: gene atpD
Assay: inorganic phosphate release, Lineweaver-Burk plot
Format: biochemical, Aphanothece halophytica
Conditions: 20 mM Tris-HCl pH 7.6, 5 mM MgCl2, 10 mM NaCl; detergent-solubilised enzyme; read-out: apparent Km

Km: 1200 µM
Compound: Nc1ncnc2c1ncn2[C@@H]1O[C@H](COP(=O)(O)OP(=O)(O)OP(=O)(O)O)[C@@H](O)[C@H]1O [ATP]
